According to patent US20250145606A1 (Arcus Biosciences, Inc., priority 2023, published 2025):

Tests used:
Conditions in all cases: biochemical, HTRF KinEASE-TK
[1] = molecular target: c-Kit (Homo sapiens (Human), UniProt P10721); assay: Inhibition of c-Kit kinase activity (HTRF KinEASE-TK); type: biochemical
Description: (§1) Inhibition of c-Kit, PDGFRα, PDGFRβ, CSFIR and FLT3 Kinase Activity
(§2) Compounds were evaluated to determine the potency with which they inhibit the kinase activity of the following panel of tyrosine kinases: c-Kit (SignalChem, Product #: K06-11BG), PDGFRα (SignalChem, Product #: P12-18G), PDGFRβ (SignalChem, Product #: P13-11G), CSFIR (SignalChem, Product #: C74-11G) and FLT3 (Invitrogen, Product #: PR4666C). Activity was determined as a function of phosphorylated biotinylated TK peptide generated by the transfer of phosphate from ATP as measured by the use of the HTRF KinEASE-TK assay kit (Cisbio, Product #: 62TKOPEJ). Levels of phosphorylated biotinylated TK peptide (Part 61TKOBLC of KinEASE assay kit) are quantified by its capture by phosphor-TK-Antibody-Cryptate (Part of KinEASE assay kit) and XL665-labeled Streptavidin (Part 610SAXLG of KinEASE assay kit) followed by measurement of Time-Resolved Fluorescence Resonance Energy Transfer (TR-FRET) signal. On the day of the assay, compounds were solubilized in DMSO and dispensed into a 384-well white Opti-plate (PerkinElmer, catalog #6007290) to generate a 22 point 1:2 titration. Enzyme solution was prepared for each of the tyrosine kinases in 50 mM HEPES, pH 7.4, 5 mM MgCl2 for c-Kit or 10 mM MgCl2 for FLT3, CSFIR, PDGFRa and PDGFRβ, 2 mM MnCl2, 0.01% Brij-35 and 0.01% BSA. Working enzyme concentrations were prepared for c-Kit at 2 nM (2×), PDGFRa and PDGFRß at 10 nM (2×), CSFIR at 2 nM (2×) and FLT3 at 0.4 nM (2×). Five microliters of enzyme dilution of each tyrosine kinase were added to their respective 384-well white Opti-plate pre-dispensed with compound and allowed to incubate for 1 h at rt. Utilizing the same enzyme buffer recipe, 2x substrate mixes were prepared for each enzyme as follows: For c-Kit, 1.6 μM (2×) TK substrate and 16 μM (2×) ATP (Promega, catalog #V915). For PDGFRα, 3.2 μM TK substrate and 1 μM ATP. For PDGFRβ, 3.2 μM TK substrate and 40 μM ATP. For CSFIR, […] TK substrate and 20 μM ATP. For FLT3, 3.2 μM TK substrate and 100 μM ATP. Reactions were initiated by addition of 5 μL of the respective 2x substrate mix to each well of the plates containing the respective tyrosine kinase enzymes and were allowed to proceed for 120 minutes at rt, except for FLT3, the reaction time is 45 min. Following the reaction, 10 μL of detection mix consisting of 0.2 μM (2×) of Streptavidin-XL665 and 2 μM (2×) of TK-Antibody-Cryptate prepared in detection buffer (Part 62SDBRDF of KinEASE assay kit) was added and then allowed to incubate for 60 min. The TR-FRET signal was quantified by measuring the ratio of emission at 665 nm to 620 nm after excitation at 320 nm by reading on a PerkinElmer Envision multimode reader. Compound potencies (IC50 values) were determined using a standard 4-parameter non-linear regression fit.

[2] = molecular target: PDGFRα (Homo sapiens (Human), UniProt P16234); assay: Inhibition of PDGFRα kinase activity (HTRF KinEASE-TK)
Sequence of PDGFRα (P16234 24-1089): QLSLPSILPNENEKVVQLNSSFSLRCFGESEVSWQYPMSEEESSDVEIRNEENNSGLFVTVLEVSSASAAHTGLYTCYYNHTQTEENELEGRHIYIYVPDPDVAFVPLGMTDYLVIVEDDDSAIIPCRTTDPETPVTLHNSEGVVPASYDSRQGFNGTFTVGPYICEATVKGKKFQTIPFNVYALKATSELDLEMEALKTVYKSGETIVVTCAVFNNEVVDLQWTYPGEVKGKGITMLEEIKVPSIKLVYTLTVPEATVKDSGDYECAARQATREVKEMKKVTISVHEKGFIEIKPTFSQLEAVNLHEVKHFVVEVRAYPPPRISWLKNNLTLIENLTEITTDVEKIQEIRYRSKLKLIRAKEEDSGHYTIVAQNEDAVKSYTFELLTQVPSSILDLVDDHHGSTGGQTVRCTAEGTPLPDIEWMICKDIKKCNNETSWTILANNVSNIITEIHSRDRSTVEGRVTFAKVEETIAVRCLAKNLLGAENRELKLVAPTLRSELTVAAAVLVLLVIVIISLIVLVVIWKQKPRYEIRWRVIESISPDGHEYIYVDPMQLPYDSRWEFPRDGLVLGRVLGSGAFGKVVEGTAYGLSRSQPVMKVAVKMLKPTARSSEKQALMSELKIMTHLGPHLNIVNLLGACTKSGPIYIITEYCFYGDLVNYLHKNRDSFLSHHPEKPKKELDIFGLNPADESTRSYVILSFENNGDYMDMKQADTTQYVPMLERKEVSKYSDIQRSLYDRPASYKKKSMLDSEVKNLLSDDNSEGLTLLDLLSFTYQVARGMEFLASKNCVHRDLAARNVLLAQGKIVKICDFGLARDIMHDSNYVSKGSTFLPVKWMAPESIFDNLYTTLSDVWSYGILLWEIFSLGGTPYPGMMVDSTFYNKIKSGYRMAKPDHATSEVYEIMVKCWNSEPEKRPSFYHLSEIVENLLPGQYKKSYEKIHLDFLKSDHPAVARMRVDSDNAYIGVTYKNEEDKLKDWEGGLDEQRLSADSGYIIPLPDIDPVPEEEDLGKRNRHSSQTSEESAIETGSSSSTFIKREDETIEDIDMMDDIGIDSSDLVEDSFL
Description: as §1, §2

[3] = molecular target: PDGFRβ (Homo sapiens (Human), UniProt P09619); assay: Inhibition of PDGFRβ kinase activity (HTRF KinEASE-TK)
Sequence of PDGFRβ (P09619 33-1106): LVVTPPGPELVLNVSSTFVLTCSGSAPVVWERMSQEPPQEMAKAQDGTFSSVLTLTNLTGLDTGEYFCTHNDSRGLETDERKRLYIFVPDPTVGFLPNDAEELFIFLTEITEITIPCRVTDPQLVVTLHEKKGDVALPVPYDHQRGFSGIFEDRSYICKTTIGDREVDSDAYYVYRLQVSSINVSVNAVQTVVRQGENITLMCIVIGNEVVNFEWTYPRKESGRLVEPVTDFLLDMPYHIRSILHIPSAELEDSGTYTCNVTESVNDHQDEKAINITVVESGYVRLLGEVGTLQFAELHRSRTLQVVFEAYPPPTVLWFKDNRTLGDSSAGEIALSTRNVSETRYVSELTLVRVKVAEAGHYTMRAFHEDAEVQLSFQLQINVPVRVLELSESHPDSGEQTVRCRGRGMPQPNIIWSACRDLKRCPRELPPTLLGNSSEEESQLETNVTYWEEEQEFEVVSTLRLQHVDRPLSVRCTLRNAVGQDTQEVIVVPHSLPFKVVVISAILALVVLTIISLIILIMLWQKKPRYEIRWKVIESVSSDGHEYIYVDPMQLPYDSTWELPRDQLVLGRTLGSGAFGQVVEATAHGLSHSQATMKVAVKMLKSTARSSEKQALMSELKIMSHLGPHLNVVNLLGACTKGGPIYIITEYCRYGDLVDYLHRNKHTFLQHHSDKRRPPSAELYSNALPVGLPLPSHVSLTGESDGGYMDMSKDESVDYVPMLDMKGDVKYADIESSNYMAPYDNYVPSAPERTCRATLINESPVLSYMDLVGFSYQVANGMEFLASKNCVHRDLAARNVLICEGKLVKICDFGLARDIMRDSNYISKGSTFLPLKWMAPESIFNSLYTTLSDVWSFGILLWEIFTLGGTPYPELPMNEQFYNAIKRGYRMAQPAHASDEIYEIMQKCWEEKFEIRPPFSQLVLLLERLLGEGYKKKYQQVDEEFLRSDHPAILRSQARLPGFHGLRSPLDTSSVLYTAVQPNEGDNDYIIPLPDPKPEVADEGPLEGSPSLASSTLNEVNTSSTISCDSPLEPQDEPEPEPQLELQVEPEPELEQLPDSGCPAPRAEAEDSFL
Description: as §1, §2

[4] = molecular target: CSF1R (Homo sapiens (Human), UniProt P07333); assay: Inhibition of CSF1R kinase activity (HTRF KinEASE-TK)
Sequence of CSF1R (P07333 20-972): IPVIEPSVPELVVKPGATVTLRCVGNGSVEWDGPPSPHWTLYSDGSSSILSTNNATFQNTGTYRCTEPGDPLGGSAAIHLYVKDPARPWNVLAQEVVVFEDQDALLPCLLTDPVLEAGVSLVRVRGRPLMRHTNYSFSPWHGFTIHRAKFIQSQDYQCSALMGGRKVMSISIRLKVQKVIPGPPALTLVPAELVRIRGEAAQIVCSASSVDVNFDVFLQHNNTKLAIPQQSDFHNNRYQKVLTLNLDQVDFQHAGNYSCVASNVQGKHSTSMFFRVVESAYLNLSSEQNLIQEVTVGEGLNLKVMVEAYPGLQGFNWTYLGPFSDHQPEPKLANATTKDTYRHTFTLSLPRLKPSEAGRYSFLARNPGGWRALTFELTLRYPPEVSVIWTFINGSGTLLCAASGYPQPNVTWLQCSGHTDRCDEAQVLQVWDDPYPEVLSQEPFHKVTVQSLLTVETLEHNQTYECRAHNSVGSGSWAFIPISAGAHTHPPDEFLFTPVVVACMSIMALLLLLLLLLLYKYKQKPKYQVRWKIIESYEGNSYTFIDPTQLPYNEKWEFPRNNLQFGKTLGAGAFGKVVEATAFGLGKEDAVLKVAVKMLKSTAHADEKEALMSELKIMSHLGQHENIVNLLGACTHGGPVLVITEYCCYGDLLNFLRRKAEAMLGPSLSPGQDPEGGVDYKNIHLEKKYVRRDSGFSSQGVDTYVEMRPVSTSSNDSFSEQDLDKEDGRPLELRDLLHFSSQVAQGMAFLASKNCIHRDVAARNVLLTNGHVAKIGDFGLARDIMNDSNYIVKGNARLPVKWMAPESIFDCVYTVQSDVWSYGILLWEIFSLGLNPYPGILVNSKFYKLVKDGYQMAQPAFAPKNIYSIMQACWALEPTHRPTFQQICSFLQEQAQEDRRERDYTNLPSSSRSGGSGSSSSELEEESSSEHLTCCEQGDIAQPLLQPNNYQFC
Description: as §1, §2

Sequence of c-Kit (P10721 26-976): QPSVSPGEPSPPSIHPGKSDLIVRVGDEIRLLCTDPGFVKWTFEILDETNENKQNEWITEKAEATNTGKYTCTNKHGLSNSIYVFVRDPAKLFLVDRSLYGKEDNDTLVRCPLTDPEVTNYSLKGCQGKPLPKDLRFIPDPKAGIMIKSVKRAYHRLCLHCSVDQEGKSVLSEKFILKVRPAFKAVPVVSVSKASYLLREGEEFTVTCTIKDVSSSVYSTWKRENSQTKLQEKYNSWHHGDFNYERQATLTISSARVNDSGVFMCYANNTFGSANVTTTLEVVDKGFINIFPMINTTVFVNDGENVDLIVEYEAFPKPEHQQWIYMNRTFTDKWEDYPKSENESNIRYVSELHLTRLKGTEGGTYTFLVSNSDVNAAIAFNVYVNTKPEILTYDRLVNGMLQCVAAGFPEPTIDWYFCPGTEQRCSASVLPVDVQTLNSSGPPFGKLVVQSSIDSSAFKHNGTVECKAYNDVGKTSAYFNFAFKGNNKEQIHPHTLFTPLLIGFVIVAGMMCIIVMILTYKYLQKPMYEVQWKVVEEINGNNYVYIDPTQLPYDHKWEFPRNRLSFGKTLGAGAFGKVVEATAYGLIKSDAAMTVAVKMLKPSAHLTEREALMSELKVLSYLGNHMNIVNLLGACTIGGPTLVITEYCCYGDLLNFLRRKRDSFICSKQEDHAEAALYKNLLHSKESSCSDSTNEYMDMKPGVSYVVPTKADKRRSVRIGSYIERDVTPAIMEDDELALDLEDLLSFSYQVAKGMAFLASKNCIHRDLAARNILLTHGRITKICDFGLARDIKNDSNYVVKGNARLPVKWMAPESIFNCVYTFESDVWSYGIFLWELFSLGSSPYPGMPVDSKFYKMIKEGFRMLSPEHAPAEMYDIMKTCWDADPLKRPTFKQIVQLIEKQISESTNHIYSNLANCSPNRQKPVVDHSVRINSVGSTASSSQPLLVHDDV

Row | SMILES | IC50 [1] [µM] | IC50 [2] [µM] | IC50 [3] [µM] | IC50 [4] [µM]
1 | Nc1ncc(C(=O)Nc2cc(C(=O)NC3CC3)c(F)cc2Cl)s1 [Example 200, 2-Amino-N-[2-chloro-5-(cyclopropylcarbamoyl)-4-fluorophenyl]-1,3-thiazole-5-carboxamide] | < 0.1 | 0.1 to 1 | > 1 | > 1
2 | CO[C@H]1C[C@@H](n2nccc2NC(=O)c2cc(NC(=O)c3cnc(N)s3)c(C)cc2F)C1 [Example 186, 2-Amino-N-[4-fluoro-5-[[2-(cis-3-methoxycyclobutyl)pyrazol-3-yl]carbamoyl]-2-methylphenyl]-1,3-thiazole-5-carboxamide] | 0.1 to 1 | > 1 | > 1 | > 1
3 | Cc1cc(F)c(C(=O)Nc2ccc3c(c2)NC(=O)C3(C)C)cc1NC(=O)c1cnc(N)s1 [Example 183, 2-Amino-N-[5-[(3,3-dimethyl-2-oxo-1H-indol-6-yl)carbamoyl]-4-fluoro-2-methylphenyl]-1,3-thiazole-5-carboxamide] | < 0.1 | < 0.1 | < 0.1 | 0.1 to 1
4 | Cc1ncc(C(=O)Nc2cc(C(=O)Nc3ccc(C4CC4)nn3)c(F)cc2C)s1 [Example 35, N-[5-[(6-cyclopropylpyridazin-3-yl)carbamoyl]-4-fluoro-2-methylphenyl]-2-methyl-1,3-thiazole-5-carboxamide] | < 0.1 | > 1 | > 1 | > 1
5 | Cc1cc(F)c(C(=O)NCCCN2CCOCC2)cc1NC(=O)c1cnc(N)s1 [Example 164, 2-Amino-N-[4-fluoro-2-methyl-5-(3-morpholin-4-ylpropylcarbamoyl)phenyl]-1,3-thiazole-5-carboxamide] | < 0.1 | > 1 | > 1 | > 1
6 | Cc1nnc(NC(=O)c2cc(NC(=O)c3cnc(N)s3)c(C)cc2F)s1 [Example 162, 2-Amino-N-[4-fluoro-2-methyl-5-[(5-methyl-1,3,4-thiadiazol-2-yl)carbamoyl]phenyl]-1,3-thiazole-5-carboxamide] | < 0.1 | > 1 | > 1 | 0.1 to 1
7 | Cc1cc(F)c(C(=O)NC2CN(c3ncccn3)C2)cc1NC(=O)c1cnc(N)s1 [Example 125, 2-Amino-N-[4-fluoro-2-methyl-5-[(1-pyrimidin-2-ylazetidin-3-yl)carbamoyl]phenyl]-1,3-thiazole-5-carboxamide] | < 0.1 | > 1 | > 1 | > 1
8 | Cc1cc(F)c(C(=O)Nc2nnc(C3CC3)[nH]2)cc1NC(=O)c1cnc(N)s1 [Example 176, 2-Amino-N-[5-[(5-cyclopropyl-4H-1,2,4-triazol-3-yl)carbamoyl]-4-fluoro-2-methylphenyl]-1,3-thiazole-5-carboxamide] | 0.1 to 1 | > 1 | > 1 | > 1
9 | Cc1cc(F)c(C(=O)Nc2ccn(CC3CC3)n2)cc1NC(=O)c1cnc(N)s1 [Example 151, 2-Amino-N-[5-[[1-(cyclopropylmethyl)pyrazol-3-yl]carbamoyl]-4-fluoro-2-methylphenyl]-1,3-thiazole-5-carboxamide] | < 0.1 | 0.1 to 1 | < 0.1 | 0.1 to 1
10 | Cc1cc(F)c(C(=O)Nc2cc(C(F)(F)F)ccn2)cc1NC(=O)c1cnc(N)s1 [Example 178, 2-Amino-N-[4-fluoro-2-methyl-5-[[4-(trifluoromethyl)pyridin-2-yl]carbamoyl]phenyl]-1,3-thiazole-5-carboxamide] | < 0.1 | < 0.1 | < 0.1 | < 0.1
11 | Cc1cc(F)c(C(=O)Nc2ccc(OC3CC3)cn2)cc1NC(=O)c1cnc(NC(=O)[C@@H]2CCOC2)s1 [Example 107, N-[5-[(5-cyclopropyloxypyridin-2-yl)carbamoyl]-4-fluoro-2-methylphenyl]-2-[[(3R)-oxolane-3-carbonyl]amino]-1,3-thiazole-5-carboxamide] | < 0.1 | > 1 | 0.1 to 1 | > 1
12 | Cc1cc(Cl)c(C(=O)Nc2ccc(OC3CC3)cn2)cc1NC(=O)c1cnc(N)s1 [Example 224, 2-Amino-N-[4-chloro-5-[(5-cyclopropyloxypyridin-2-yl)carbamoyl]-2-methylphenyl]-1,3-thiazole-5-carboxamide] | < 0.1 | > 1 | 0.1 to 1 | > 1
13 | Cc1cc(F)c(C(=O)Nc2ccc(CN3CCOCC3)cn2)cc1NC(=O)c1cnc(N)s1 [Example 248, 2-Amino-N-[4-fluoro-2-methyl-5-[[5-(morpholin-4-ylmethyl)pyridin-2-yl]carbamoyl]phenyl]-1,3-thiazole-5-carboxamide] | < 0.1 | > 1 | > 1 | > 1
14 | Cc1cc(F)c(C(=O)Nc2cc3n(n2)CCOC3)cc1NC(=O)c1cnc(N)s1 [Example 182, 2-Amino-N-[5-(6,7-dihydro-4H-pyrazolo [5,1-c][1,4]oxazin-2-ylcarbamoyl)-4-fluoro-2-methylphenyl]-1,3-thiazole-5-carboxamide] | < 0.1 | > 1 | 0.1 to 1 | > 1
15 | COCc1ccc(NC(=O)c2cc(NC(=O)c3cnc(C)s3)c(Cl)cc2F)nc1 [Example 47, N-[2-chloro-4-fluoro-5-[[5-(methoxymethyl)pyridin-2-yl]carbamoyl]phenyl]-2-methyl-1,3-thiazole-5-carboxamide] | 0.1 to 1 | > 1 | > 1 | > 1
16 | Cc1cc(F)c(C(=O)Nc2ncc(C(C)C)s2)cc1NC(=O)c1cnc(N)s1 [Example 146, 2-Amino-N-[4-fluoro-2-methyl-5-[(5-propan-2-yl-1,3-thiazol-2-yl)carbamoyl]phenyl]-1,3-thiazole-5-carboxamide] | < 0.1 | < 0.1 | < 0.1 | < 0.1
17 | Cc1cc(F)c(C(=O)Nc2cc3c(cn2)COC3)cc1NC(=O)c1cnc(N)s1 [Example 112, 2-Amino-N-[5-(1,3-dihydrofuro [3,4-c]pyridin-6-ylcarbamoyl)-4-fluoro-2-methylphenyl]-1,3-thiazole-5-carboxamide] | < 0.1 | > 1 | 0.1 to 1 | 0.1 to 1
18 | Cc1cc(F)c(C(=O)Nc2ccc(OC3CC3)cn2)cc1NC(=O)c1cncs1 [Example 169, N-[5-[(5-Cyclopropyloxypyridin-2-yl)carbamoyl]-4-fluoro-2-methylphenyl]-1,3-thiazole-5-carboxamide] | < 0.1 | > 1 | > 1 | > 1
19 | COc1ccc(NC(=O)c2cc(NC(=O)c3cnc(N)s3)c(C)cc2F)c(F)c1 [Example 228, 2-Amino-N-[4-fluoro-5-[(2-fluoro-4-methoxyphenyl)carbamoyl]-2-methylphenyl]-1,3-thiazole-5-carboxamide] | < 0.1 | 0.1 to 1 | 0.1 to 1 | 0.1 to 1
20 | Cc1cc(F)c(C(=O)Nc2ccc(C3(C#N)CC3)nn2)cc1NC(=O)c1cnc(N)s1 [Example 119, 2-Amino-N-[5-[[6-(1-cyanocyclopropyl)pyridazin-3-yl]carbamoyl]-4-fluoro-2-methylphenyl]-1,3-thiazole-5-carboxamide] | < 0.1 | > 1 | 0.1 to 1 | 0.1 to 1
21 | Cc1cc(F)c(C(=O)Nc2ccc(C(C)(O)C(F)(F)F)cn2)cc1NC(=O)c1cnc(N)s1 (stereo not drawn) [Example 111, 2-Amino-N-[4-fluoro-2-methyl-5-[[5-(1,1,1-trifluoro-2-hydroxypropan-2-yl)pyridin-2-yl]carbamoyl]phenyl]-1,3-thiazole-5-carboxamide] | < 0.1 | < 0.1 | < 0.1 | < 0.1
